Experimental findings from patent publication US7947690B2, “Pyrimidine derivative condensed with a non-aromatic ring” (Astellas Pharma Inc., priority 2004, dated 2011) are described below.

Where a name gives a salt, the structure may show the parent alone.

One assay concerns MIN6B1 cell. The experiment in a line: Assay for promoting activity on insulin secretion. The assay is classed as cell-based, mouse. The note with it: 10 μM test compound in KRB-HEPES with 16.8 mM glucose, 37° C., relative value, insulin concentration for only DMSO = 100%; for activity at 10 µM: Mus musculus, 22 min, read-out: Promotion activity on insulin secretion, %; for Promotion activity on insulin secretion, %: 22 minutes. How it is done: (1) Assay for Promoting Activity on Insulin Secretion
In this assay, promoting activities on insulin secretion of the test compounds were studied using MIN6B1 cell, which was a strain of mouse pancreatic β-cells, and glibenclamide, which was a commercially available insulin secretion secretagogue, as a reference compound. The assay procedure is given below.
MIN6B1 cells were seeded on a 48-well plate at a concentration of 1×10^5 cells/well (0.25 ml) (The medium was prepared by adding FCS (fetal calf serum) to DMEM (Dulbecco's Modified Eagle Medium) containing 25 mM glucose such that the FCS concentration became 10%). After two days, the medium was suctioned by an aspirator, each well was Washed four times with 0.2 ml of KRB-HEPES buffer (Krebs-Ringer-bicarbonate-N-2-hydroxylethylpiperazine-N′-2-ethanesulfonic acid; 130 mM NaCl, 4.7 mM KCl, 1.2 mM KH2PO4, 1.2 mM MgCl2.6H2O, 0.25 mM CaCl2.2H2O, 2.5 mM NaHCO3, 0.5% BSA, and 10 mM N-2-hydroxyethylpiperazine-N′-2-ethanesulfonic acid (pH 7.4)) containing 2.8 mM glucose warmed to 37° C., 0.2 ml of said buffer was again added, and the cells were incubated at 37° C. for 30 to 60 minutes. After the buffer was suctioned by an aspirator, 0.25 ml of a solution containing 10 μM of each test compound in KRB-HEPES containing 16.8 mM glucose was added to each well, and the cells were incubated at 37° C. for 22 minutes. The samples were pipetted and diluted by 25 to 51 times, and the insulin concentrations were analyzed using an insulin assay kit (Rat Insulin [^125I] Biotrak Assay System with Magnetic Separation; Amersham Bioscience K.K.). The test compounds were dissolved in 100% DMSO, and were added at the final concentration of 0.1%. The activity was expressed as a relative value, provided that insulin concentration for only DMSO was 100%.

The next assay deals with normal mice. The assay can be described thus: Oral glucose tolerance test on normal mouse. The note with it: ICR mice, nateglinide 10 mg/kg orally 30 minutes before glucose loading; at 30 minutes after glucose loading, relative to control group. In kind it is in vivo. How it is done: (2) Oral Glucose Tolerance Test on Normal Mouse
In this assay, preventive activities of test compounds against hyperglycemia following glucose loading were examined using normal mice and nateglinide, a commercially available oral anti-hyperglycemic agent, as a reference compound. The assay procedure is given below.
ICR mice (male, six weeks old) that had been preliminary bred for one week were fasted for 18 to 20 hours to use as test animals. Each test compound was dissolved in 0.5% methylcellulose solution and orally administered at 3 mg/kg (10 mg/kg for nateglinide) before glucose loading. Timing to administer the test compound was selected to be optimal for each test compound, which was 10 minutes before glucose loading for the compounds of the present invention or 30 minutes before glucose loading for nateglinide, which was a reference compound. The hypoglycemic rate (%) at 30 minutes after glucose loading was measured relative to the control group.

As to `NC(=O)CCC1CCN(c2nc(-c3cc(F)c(Cl)cc3F)nc3c2CS(=O)(=O)C3)CC1` [Example 283, 3-{1-[2-(4-chloro-2,5-difluorophenyl)-6,6-dioxido-5,7-dihydrothieno[3,4-d]pyrimidin-4-yl]piperidin-4-yl}propanamide], in the assay with MIN6B1 cell, the activity at 10 µM turned out to be 375%.

As for `O=C(CO)NCC1CCN(c2nc(-c3cc(F)c(Cl)cc3F)nc3c2CS(=O)(=O)C3)CC1` [Example 331], in the assay with MIN6B1 cell, the “Promotion activity on insulin secretion, %” value is 308%. `O=C(O)CCNC1CCN(c2nc(-c3cc(F)c(Cl)cc3F)nc3c2CS(=O)(=O)C3)CC1` [Example 288, 3-({1-[2-(4-chloro-2,5-difluorophenyl)-6,6-dioxido-5,7-dihydrothieno[3,4-d]pyrimidin-4-yl]piperidin-4-yl}amino)propionic acid]: the activity at 10 µM in the assay with MIN6B1 cell stood at 253%.

Turning to `O=C(O)CCCC1CCN(c2nc(-c3cc(F)c(Cl)cc3F)nc3c2CS(=O)(=O)C3)CC1` [Example 291, 4-{1-[2-(4-chloro-2,5-difluorophenyl)-6,6-dioxido-5,7-dihydrothieno[3,4-d]pyrimidin-4-yl]piperidin-4-yl}butyric acid], in the assay on MIN6B1 cell, the activity at 10 µM stood at 269%.

Regarding `C[C@@H]1CCCN(c2nc(-c3cc(F)c(Cl)cc3F)nc3c2CS(=O)(=O)C3)C1` [Example 1, (R)-2-(4-chloro-2,5-difluorophenyl)-4-(3-methylpiperidin-1-yl)-5,7-dihydrothieno[3,4-d]pyrimidine 6,6-dioxide hydrochloride], the activity at 10 µM in the assay with MIN6B1 cell came out at 355%. Consider `CC(C)[C@H]1CC[C@H](C(=O)N[C@H](Cc2ccccc2)C(=O)O)CC1` [Nateglinide, nateglinide], for which the “Hypoglycemic rate, %” value in the assay on normal mice is 26%. Regarding `O=S1(=O)Cc2nc(-c3cc(F)c(Cl)cc3F)nc(N3CCC(NCCCO)CC3)c2C1` [Example 287, 3-({1-[2-(4-chloro-2,5-difluorophenyl)-6,6-dioxido-5,7-dihydrothieno[3,4-d]pyrimidin-4-yl]piperidin-4-yl}amino)propan-1-ol], in the assay on MIN6B1 cell, the activity at 10 µM amounted to 208%.

Consider `O=C(O)CCCC1CCN(c2nc(C3CCCC3)nc3c2CS(=O)(=O)C3)CC1` [Example 407, 4-[1-(2-cyclopentyl-6,6-dioxido-5,7-dihydrothieno[3,4-d]pyrimidin-4-yl)piperidin-4-yl]butyric acid], for which the activity at 10 µM in the assay on MIN6B1 cell is 325%. Take `COc1ccc(Cl)cc1C(=O)NCCc1ccc(S(=O)(=O)NC(=O)NC2CCCCC2)cc1` [Glibenclamide, glibenclamide, reference compound]: in the assay on MIN6B1 cell, the activity at 10 µM stood at 122%. On to `O=S1(=O)Cc2nc(-c3cc(F)c(Cl)cc3F)nc(N3CCC(O)(CCCO)CC3)c2C1` [Example 272, 1-[2-(4-chloro-2,5-difluorophenyl)-6,6-dioidxo-5,7-dihydrothieno[3,4-d]pyrimidin-4-yl]-4-(3-hydroxypropyl)piperidin-4-ol], for which the “Promotion activity on insulin secretion, %” value with MIN6B1 cell was determined as 322%.

For `NC(=O)CCN1CCN(c2nc(-c3cc(F)c(Cl)cc3F)nc3c2CS(=O)(=O)C3)CC1` [Example 269, 3-{4-[2-(4-chloro-2,5-difluorophenyl)-6,6-dioxido-5,7-dihydrothieno[3,4-d]pyrimidin-4-yl]piperazin-1-yl}propanamide], in the assay on MIN6B1 cell, the activity at 10 µM worked out at 212%.
